The source of these data is US20240197805A1, “COMPOSITE FOR RELIEVING […], PREPARATION METHOD THEREFOR, USE THEREOF, DRUG, FOOD AND HEALTH-CARE PRODUCT” (INFINITUS ( CHINA ) COMPANY LTD., priority 2022, published 2024).

Structures are written as SMILES.

Holding throughout (format): in vivo
Assay [1] has as its system ICR mice. In words: Pentobarbital sodium subthreshold dose hypnosis test. Conditions: mice gavaged 14 days (250 mg/kg samples; GABA 100 mg/kg); pentobarbital sodium 30 mg/kg BW i.p.; animals asleep within 30 min; *p<0.05, **p<0.01 vs blank group. An excerpt: (§1) • 1. Principle: a pentobarbital sodium subthreshold dose hypnosis test, a sleep latency test and a sleep extension time change test are common test methods for a sleep improvement performance of a health-care food. The method takes a disappearance of a righting reflex as an observation index and is specifically represented as follows: when a mouse is placed on the back to lie, if the mouse cannot turn over for more than 60 s, the righting reflex is considered to disappear, and the mouse falls sleep; if a body position can be righted immediately (within 5 s), the righting reflex is considered to be recovered and the mouse is in a waking state; and a time from the disappearance of the righting reflex to the recovery is an animal sleeping time. • 2. Materials: ICR mice come from the Experimental Animal Center of Zhejiang Academy of Medical Sciences and have the production license number of SCXK (Zhe). The mice are all male, weigh 18 to 22 g and are divided into 10 mice/group. The mice are adapted to the environment in an SPF animal room for 5 to 7 days, wherein environment conditions of the SPF animal room are as follows: a temperature of 20 to 26° C., a humidity of 40% to 70%, and light and shade alternation time of 12 h/12 h. • 3. […]

For assay [2], the system named is ICR mice. In words: Sleep extension time change experiment (pentobarbital sodium). Conditions: mice gavaged 14 days (250 mg/kg samples; GABA 100 mg/kg); pentobarbital sodium 30 mg/kg BW i.p.; *p<0.05, **p<0.01 vs blank group.
Excerpt: as §1

In assay [3] the test system is ICR mice. In words: Sleep latency experiment (pentobarbital sodium). As to conditions: mice gavaged 14 days (250 mg/kg samples; GABA 100 mg/kg); pentobarbital sodium 200 mg/kg BW i.p.; *p<0.05 vs blank group.
Excerpt: as §1

In the case of `NCCCC(=O)O` [Positive control, y-aminobutyric acid], the Sleeping rate in the assay on ICR mice [1] is given as 90.00** %. For the same molecule, the “Sleeping time x ± s” value in the assay with ICR mice [2] is 92.36 ± 16.67** min. Also, in the assay on ICR mice [3], the “Sleep latency x ± s” value is reported as 5.60 ± 1.48* min.
